Measured values reported in paper PMC6222789, “CF3-Substituted Mollugin 2-(4-Morpholinyl)-ethyl ester as a Potential Anti-inflammatory Agent with Improved Aqueous Solubility and Metabolic Stability” (Molecules : A Journal of Synthetic Chemistry and Natural …, 2018).

Assays:
[1] = system: TNF-α-induced adhesion of U937 monocytic cells to HT-29 cells; experiment: TNF-α-induced colonic epithelial cell adhesion assay; assay type: cell-based, human; details: Homo sapiens, Epithelial cell, 10 uM; U937 adhesion to HT-29 cells, TNF-α-induced
Protocol: (§1) Synthesized mollugin derivatives were subjected to the colonic epithelial cell adhesion assay, which mimics the initial stage of colon inflammation. The inhibition of TNF-α-induced or IL-6-induced adhesion of U937 monocytic cells to HT-29 cells in 10 μM solution of synthesized molecules was measured, and the results are summarized in Table 1 and Table 2. Mesalazine (2), a commercially available medication for the treatment of IBD, and mollugin were chosen as assay positive controls.
(§2) HT-29 human colonic epithelial cells and U937 human pre-monocytic cells were grown in RPMI 1640 medium supplemented with 10% FBS, 100 IU/mL penicillin, and 100 µg/mL streptomycin in a humidified incubator under 5% CO2/95% air.
(§3) U937 monocytic cell adhesion to colonic epithelial cells was evaluated using human U937 pre-monocytic cells, which were prelabeled with 2′,7′-bis(2-carboxyethyl)-5(6)-carboxyfluorescein acetoxymethyl ester (BCECF/AM, 10 μg/mL) for 1 h at 37 °C. HT-29 cells cultured in 24-well plates were pretreated with test compound, 5-ASA, or tofacitinib for 1 h prior to incubation with TNF-α (10 ng/mL) and IL-6 (5 ng/mL) for an additional 3 h. Cells were then co-incubated with BCECF/AM-prelabeled U937 cells (1 × 10^6 cells/well) for 30 min at 37 °C. Non-adhering U937 cells were removed, and the HT-29 cells and adherent U937 cells were washed twice with PBS. Images were captured and processed with a Nikon ECLIPSE TE2000-U microscope and NIS-Elements F software (Nikon, Tokyo, Japan). For quantitative analysis, other sets of cells were lysed in 0.1% Triton X-100 in Tris (0.1 M), and the fluorescence was measured using a fluorescence-detecting microplate reader (Promega , Madison, WI, USA) at […]. Experiments were performed in triplicate and repeated at least three times independently.

[2] = system: IL-6-induced adhesion of U937 monocytic cells to HT-29 cells; experiment: IL-6-induced colonic epithelial cell adhesion assay; assay type: cell-based, human; details: Homo sapiens, Epithelial cell, 10 uM; U937 adhesion to HT-29 cells, IL-6-induced
Protocol: as §1, §2, §3

[3] = Metabolic stability, dog liver microsomes; assay type: in vitro ADME; details: 30 min, 1 μM
Protocol: Pooled human liver microsomes (150 donor) and dog, rat, mouse liver microsomes were obtained from BD Gentest Co. (Woburn, MA, USA). NADPH regeneration system was obtained from Promega. S-Mephenytoin, 4-hydroxymephenytoin, and 1’-hydroxymidazolam were purchased from Ultrafine Chemical Co. (Manchester, UK). All other chemicals and solvents were of the highest grade available. The metabolic stability assay was performed by incubation of human or selected animal liver microsomes (most often dog, rat and mouse), at 37 °C with a test compound at a final concentration of 1 μM, in the presence of 0.5 mg/mL microsomal protein and NADPH regeneration system, in a total volume of 100 μL of 100 mM phosphate buffer, pH 7.4. The incubation was started by the addition of NADPH regeneration system and terminated with 40 μL of ice-cold acetonitrile at 0 and 30 min. Precipitated proteins were removed by centrifugation at 10,000× g for 5 min at 4 °C. Aliquots of the supernatant were injected onto an LC-MS/MS system. Incubations terminated prior to the addition of NADPH regeneration system (time point 0 min) were used as standards, defined as 100%. Percent of the parent compound remaining was calculated by comparing peak area.

[4] = Plasma stability, human plasma; assay type: in vitro ADME; details: 37 °C, 1 μM
Protocol: The plasma stability assay was performed by incubation of human or rat plasma with a test compound in a final concentration of 1 μM for 120 min at 37 °C. The incubation was terminated by addition of 40 μL of ice-cold acetonitrile and vortexing for 5 min. The precipitated proteins were removed by centrifugation at 14,000× g for 5 min at 4 °C. Aliquots of the supernatant were injected onto a Shimadzu Nexera XR LC system. Percentages of the parent compound remaining were calculated by comparing peak areas using the Xcalibur software (version 1.6.1, Waltham, MA, USA).

[5] = biological target: T1, CYP1A2 (Homo sapiens, UniProt P05177); experiment: CYP inhibition assay, CYP1A2; assay type: in vitro ADME; details: for CYP Inhibition (% of Control) 1A2: 10 μM, CYP activity in presence of inhibitor as % of control, human liver microsomes
T1 construct: from tissue; host or cells: human liver microsomes
T1 sequence (P05177 1-516): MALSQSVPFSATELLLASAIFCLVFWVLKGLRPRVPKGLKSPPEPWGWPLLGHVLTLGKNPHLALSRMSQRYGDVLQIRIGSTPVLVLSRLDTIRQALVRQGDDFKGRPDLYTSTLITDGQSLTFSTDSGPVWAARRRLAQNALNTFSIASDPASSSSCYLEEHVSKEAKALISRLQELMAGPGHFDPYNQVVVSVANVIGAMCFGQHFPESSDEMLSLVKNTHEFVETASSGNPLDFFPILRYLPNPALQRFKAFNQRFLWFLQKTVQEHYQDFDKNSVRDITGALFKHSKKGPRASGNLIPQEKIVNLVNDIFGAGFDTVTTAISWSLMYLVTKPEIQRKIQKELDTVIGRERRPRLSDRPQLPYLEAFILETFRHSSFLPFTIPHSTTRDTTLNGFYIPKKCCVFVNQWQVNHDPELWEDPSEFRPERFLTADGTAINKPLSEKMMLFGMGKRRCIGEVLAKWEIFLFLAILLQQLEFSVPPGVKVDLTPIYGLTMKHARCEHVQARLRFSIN
Protocol: (§4) All incubations were performed in duplicate, and the mean values were used for analysis. The assays of phenacetin O-deethylase, tolbutamide 4-hydroxylase, S-mephenytoin 4-hydroxylase, dextromethorphan O-demethylase and midazolam 1′-hydroxylase activities were determined as probe activities for CYP1A2, CYP2C9, CYP2C19, CYP2D6 and CYP3A, respectively, using cocktail incubation and tandem mass spectrometry. Briefly, incubation reaction was performed with 0.25 mg/mL human liver microsomes in a final incubation volume of 100 μL. The incubation medium contained 100 mM phosphate buffer (pH 7.4) with probe substrates. The incubation mixture containing various inhibitors (10 μM) was pre-incubated for 5 min. After pre-incubation, an NADPH regenerating system was added. After incubation at 37 °C for 15 min, the reaction was stopped by placing the incubation tubes on ice and adding 40 μL of ice-cold acetonitrile. The incubation mixtures were then centrifuged at 10,000× g for 5 min at 4 °C. Aliquots of the supernatant were injected onto an LC-MS/MS system. The CYP-mediated activities in the presence of inhibitors were expressed as percentages of the corresponding control values.

[6] = biological target: T2, CYP2C9 (Homo sapiens, UniProt P11712); experiment: CYP inhibition assay, CYP2C9; assay type: in vitro ADME; details: for CYP Inhibition (% of Control) 2C9: 10 μM, CYP activity in presence of inhibitor as % of control, human liver microsomes
T2 construct: from tissue; host or cells: human liver microsomes
Protocol: as §4

[7] = system: CYP3A4; experiment: CYP inhibition assay, CYP3A4; assay type: in vitro ADME, human; details: for CYP Inhibition (% of Control) 3A4: 10 μM, CYP activity in presence of inhibitor as % of control, human liver microsomes
Protocol: as §4

[8] = system: cell viability; experiment: MTT cell viability assay; assay type: cell-based; details: 10 μM concentration

T2 sequence (P11712 whole entry): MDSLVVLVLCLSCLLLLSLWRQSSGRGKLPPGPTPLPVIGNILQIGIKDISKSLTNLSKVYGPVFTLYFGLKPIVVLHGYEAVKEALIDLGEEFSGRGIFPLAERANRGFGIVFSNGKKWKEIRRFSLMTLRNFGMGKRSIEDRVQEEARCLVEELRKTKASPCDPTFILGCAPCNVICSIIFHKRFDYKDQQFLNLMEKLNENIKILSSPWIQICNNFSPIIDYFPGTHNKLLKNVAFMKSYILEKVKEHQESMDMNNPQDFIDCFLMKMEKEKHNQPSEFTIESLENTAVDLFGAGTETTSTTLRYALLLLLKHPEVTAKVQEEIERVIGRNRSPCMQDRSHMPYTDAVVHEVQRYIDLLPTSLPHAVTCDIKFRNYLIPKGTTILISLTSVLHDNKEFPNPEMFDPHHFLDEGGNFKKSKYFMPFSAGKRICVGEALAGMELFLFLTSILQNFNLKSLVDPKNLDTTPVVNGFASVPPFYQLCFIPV

Question: Which results are given for `CC1(C)C=Cc2c(C(=O)OCCN3CCOCC3)c(O)c3cc(C(F)(F)F)ccc3c2O1` [15c, 2-Morpholinoethyl 6-hydroxy-2,2-dimethyl-8-(trifluoromethyl)-2H-benzo[h]chromene-5-carboxylate]?
Answer: inhibition at 10 µM [1]: 46 ± 7.6%; inhibition at 10 µM [2]: 50.3 ± 5.7%; Metabolic Stability (% Remain, 30 min) Dog [3]: 86 % Remain; Plasma Stability (% Remain, 2 h) Human [4]: 100 % Remain; CYP Inhibition (% of Control) 1A2 [5]: 57 % of Control; inhibition at 15 min, 10 μM ([5]; human, liver microsomes, pH 7.4, probe phenacetin (O-deethylation), at 10 μM drug concentration, read-out: % inhibition of CYP 1A2): < 50%; CYP Inhibition (% of Control) 2C9 [6]: 97 % of Control; inhibition at 15 min, 10 μM ([6]; human, liver microsomes, pH 7.4, probe tolbutamide (4-hydroxylation), at 10 μM drug concentration, read-out: % inhibition of CYP 2C9): < 50%; CYP Inhibition (% of Control) 3A4 [7]: 90 % of Control; inhibition at 15 min, 10 μM ([7]; human, liver microsomes, pH 7.4, probe midazolam (1′-hydroxylation), at 10 μM drug concentration, read-out: % inhibition of CYP 3A4): < 50%; effect on cell viability (MTT) [8]: neither 6d nor 15c affects the cell viability

Question: For `CC1(C)C=Cc2c(C(=O)OCCN3CCOCC3)c(O)c3ccccc3c2O1` [6d, 2-Morpholinoethyl 6-hydroxy-2,2-dimethyl-2H-benzo[h]chromene-5-carboxylate], which inhibition at 10 µM [1] is on record?
Answer: Its inhibition at 10 µM is 46.3 ± 6.2%.

Question: And the inhibition at 10 µM [2]?
Answer: The inhibition at 10 µM was 26.5 ± 5%.

Question: What about the “Metabolic Stability (% Remain, 30 min) Dog” value [3] of the same compound?
Answer: Its value is 45 % Remain.

Question: What about the “Plasma Stability (% Remain, 2 h) Human” value [4] of the same compound?
Answer: Its value is 97 % Remain.

Question: What about the “CYP Inhibition (% of Control) 1A2” value [5] of the same compound?
Answer: The value was 58 % of Control.

Question: And the “CYP Inhibition (% of Control) 2C9” value [6]?
Answer: The value was 99 % of Control.

Question: And the “CYP Inhibition (% of Control) 3A4” value [7]?
Answer: The value was 91 % of Control.

Question: And the “effect on cell viability (MTT)” value [8]?
Answer: The value was “neither 6d nor 15c affects the cell viability”.
